# From PMC4466525, “Design, Synthesis and Structure-Activity Relationship Studies of Novel Survivin Inhibitors with Potent Anti-Proliferative Properties” (PLoS ONE, 2015)
# Experiments:
# [1] = test system: A375; assay: Cell viability (MTS) anti-proliferative assay, A375; type: cell-based; conditions: A-375, A375 human melanoma, 48 h treatment, n = 4, read-out: IC50 values ± SEM, A375
# Protocol: (§1) The anti-proliferative effect of UC-112 and its analogs were tested in human melanoma (A375, M14 and M14/LCC6MDR1) and human prostate cancer (PC-3) cell lines. All the cell lines were purchased from ATCC (American Type Culture Collection, Manassas, VA). The cancer cells were cultured using the supplemented cell culture medium as described before at 37°C in a humidified atmosphere containing 5% CO2. 5000 cells in logarithm growing phase were seeded overnight into each well of a 96-well plate. Then the cells were continuously incubated with sequential diluted compound solution (10 nM to 100 μM, 100 μl per well) in cell culture medium.
# [2] = test system: M14; assay: Cell viability (MTS) anti-proliferative assay, M14; type: cell-based; conditions: M14 human melanoma, 48 h treatment, n = 4, read-out: IC50 values ± SEM, M14
# Protocol: as §1
# [3] = test system: M14/LCC6MDR1; assay: Cell viability (MTS) anti-proliferative assay, multidrug-resistant M14/LCC6MDR1; type: cell-based, human
# Protocol: as §1
# [4] = test system: PC-3; assay: Cell viability (MTS) anti-proliferative assay, PC-3; type: cell-based; conditions: PC-3 human prostate cancer, 48 h treatment, n = 4, read-out: IC50 values ± SEM, PC-3
# Protocol: as §1
# [5] = biological target: T1, survivin (Homo sapiens, UniProt O15392); assay: Western blotting of survivin level, A375 cells; type: cell-based
# T1 construct: endogenous in cells; host or cells: A375 cells
# T1 sequence (O15392 whole entry): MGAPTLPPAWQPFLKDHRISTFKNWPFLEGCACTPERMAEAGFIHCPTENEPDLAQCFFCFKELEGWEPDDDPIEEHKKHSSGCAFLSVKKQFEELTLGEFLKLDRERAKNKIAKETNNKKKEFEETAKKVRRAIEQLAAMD
# Protocol: (§2) Lysates of A375 cells treated by the compound solution for 24 h were used to determine the change of IAP protein levels through western blotting. Primary rabbit antibodies against survivin, XIAP, cIAP1, cIAP2, livin and GAPDH were purchased from Cell Signaling Technology, Inc. (Danvers, MA) and used according to manufacture instructions as reported previously. Protein lane intensities were quantified by ImageJ software (US National Institutes of Health, Bethesda, MD).
# [6] = biological target: T1, survivin; assay: Western blotting of survivin level, PC-3 cells; type: cell-based; conditions: gradient increasing dose, 24 h
# [7] = test system: other IAPs (XIAP, cIAP1, cIAP2, livin); assay: Western blotting of other IAP levels; type: cell-based, human; conditions: 24 h, A375 and PC-3 cells
# Protocol: as §2
structure (smiles),measurement,setting,value
"CCc1ccc(COCc2cc(CN3CCCC3)c(O)c3ncccc23)cc1 [4f, 5-(((4-ethylbenzyl)oxy)methyl)-7-(pyrrolidin-1-ylmethyl)quinolin-8-ol]",IC50,[1],900 ± 100 nM
same,IC50,[2],900 ± 100 nM
same,IC50,"[3]; Homo sapiens, 48 h, multidrug-resistant M14/LCC6MDR1 melanoma, 48 h treatment, MTS, n = 4, read-out: IC50 values ± SEM, M14/LCC6MDR1",2700 ± 1000 nM
same,Resistance Index,[3]; IC50 on M14/LCC6MDR1 divided by IC50 on parental M14,3.0
same,IC50,[4],900 ± 100 nM
same,IC50 values for survivin inhibition,"[5]; estimated from western blotting, A375 and PC-3 cells",low nanomolar range
same,"Effect on survivin level, A375","[5]; gradient increasing dose, 24 h, A375 cells",dose-dependently suppressed survivin level
same,"Effect on survivin level, PC-3",[6],dose-dependently suppressed survivin level
same,Effect on levels of other IAPs,[7],minimally affected
